Consider one compound from patent publication US20260327239A1, “COMPOUNDS FOR COVALENT INHIBITION OF SHP2” (Purdue Research Foundation, priority 2023, published 2026).

The test has as its target T1, SHP2 (residues 224-528) (Homo sapiens, UniProt Q06124).
T1 construct: 4× solution of SHP2 (residues 224-528)
T1 sequence (Q06124 224-528): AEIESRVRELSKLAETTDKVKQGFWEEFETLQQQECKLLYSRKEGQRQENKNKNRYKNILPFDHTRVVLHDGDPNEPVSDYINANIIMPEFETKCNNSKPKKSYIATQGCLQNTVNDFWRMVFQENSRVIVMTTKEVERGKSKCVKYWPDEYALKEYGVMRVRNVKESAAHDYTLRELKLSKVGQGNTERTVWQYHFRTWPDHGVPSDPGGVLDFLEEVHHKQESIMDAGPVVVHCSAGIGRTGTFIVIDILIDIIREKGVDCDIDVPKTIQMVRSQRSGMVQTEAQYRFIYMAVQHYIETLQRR
As to the kind of experiment: Kinetic characterization of SHP2 inactivation (pNPP cleavage progress curves, kobs, kinact/KI). The note with it: pH 7, role: inhibitor; substrate pNPP 3 mM, 100 nM SHP2, pH 7.0, 25° C; read-out: kinact/KI (converted). It is filed as biochemical. The text has this:
Covalent inhibitors work by forming a covalent bond with a reactive functional group in the target enzyme. Consequently, the kinetics for enzyme inactivation by a covalent inhibitor is not an equilibrium process as with reversible inhibition. The potency of a reversible inhibitor can be measured by its IC50 value. Unlike reversible inhibitors, where inhibition is only concentration-dependent, covalent inhibitors show both time- and concentration-dependent target inhibition (a covalent bond formation is a time-dependent event). If sufficient time is available, covalent inhibitors can completely neutralize the target, rather than go to equilibrium. As a result, the potency and selectivity of a covalent inhibitor cannot be determined by IC50 values; instead, the rate of inactivation of the target (kinact) and the inhibition constant (KI) were determined. The bimolecular rate constant (kinact/KI), was chosen to rank the potency of covalent inhibitors (Ruddraraju et al., 2017, Molecular Biosystems 13(7), 1257-1279).
PTPs catalyze the dephosphorylation of tyrosine-phosphorylated protein substrates through a conserved mechanism that relies on a catalytic cysteine residue (Zhang, Z.-Y et al., 2003, Prog. Nucleic Acid Research Molecular Biology, 73, 171-220). This provides a mechanistic rationale for the assessment of electrophilic Michael acceptors, such as those synthesized in the present disclosure as potential covalent inhibitors of the SHP2. The enzymatic cleavage of para-nitrophenyl phosphate by SHP2 was measured over time in the presence of 100 μM inhibitor or DMSO, to determine the observed first-order rate constant (kobs). Based on kobs values, compounds were further evaluated in a dose-dependent manner to determine the second-order rate constant (kinact/KI) indicating the overall efficacy of the compounds, which was used to assess the structure-activity relationship (SAR) for the analogs of interest and design additional analogs (see Table 1). […] It has been known that modifications to the electronegativity of substituents proximal to electrophilic centers alter the reactivity of the electrophile.
The efficacy of covalent inhibitors can be broken down into the initial reversible binding of the compounds (KI), and the rate of covalent bond formation and enzyme inactivation (kinact). These two constants can be used individually, or as a ratio to determine the overall efficacy of the inhibitor's efficacy. To investigate the contribution to reversible binding compound (34) was evaluated, which lacks the carbonyl of the Michael acceptor to prevent the formation of a covalent adduct.
Inhibitors were evaluated for their ability to inhibit the reaction catalyzed by SHP2 using para-nitrophenyl phosphate (pNPP) as a substrate at pH 7 and 25° C. A 2× solution of inhibitor was diluted into DMG buffer (50 mM 3,3-dimethylglutarate pH 7.0, 1 mM EDTA, ionic strength adjusted to 150 mM using NaCl) was added to a clear flat-bottom 96-well plate (Corning Costar Assay Plate #9017), and serially diluted 1.5-fold, resulting in 100 μL volumes of varying inhibitor concentrations. To this was added a 4× solution of pNPP (12 mM) in DMG buffer. The reaction was initialized by the addition of a 4× solution of SHP2 (residues 224-528), resulting in a final solution of: inhibitor (100-0 μM), pNPP (3 mM), and SHP2 (100 nM). The plate was then monitored for a change in absorbance ab […] using a CLARIOstar^Plus plate reader (BMG Labetch) over the course of an hour. The resulting progress curves for each inhibitor were imported into Graphpad Prism 9 (GraphPad Software, San Diego, CA (USA)), and a baseline correction analysis was completed for fitting purposes. Each curve was fit to the equation Y=V0×(1−e^−kobs*t)/kobs.^[17.22] The kobs values were then plotted against inhibitor concentrations. If the resulting graph was linear, the kinact/KI value was determined by the slope of that line and the 95% confidence interval (95% CI). […]

Molecules are shown by their SMILES.

In the case of `C=C1C(=O)[C@@]2(C(=O)N3CCN(c4ccc(I)cc4)CC3)CC(=O)C[C@@H]1C2` [Compound 37], the kinact/KI is 396 M⁻¹ s⁻¹.
